Data from patent US20240400553A1, “AMINE BASED MATRIPTASE 2 INHIBITORS AND USES THEREOF” (Disc Medicine, Inc., priority 2023, published 2024).
pKi: −log10 of the molar value.

These compounds were tested against T1, Human Recombinant Matriptase 2 (Homo sapiens, UniProt Q8IU80) (assay: Matriptase 2 inhibition, fluorescence based assay (Method I)). Details: Table A; Ki of Matriptase-2 given as class symbols; read-out: Mat-2 Ki.
T1 construct: made in house
T1 sequence (Q8IU80 1-811): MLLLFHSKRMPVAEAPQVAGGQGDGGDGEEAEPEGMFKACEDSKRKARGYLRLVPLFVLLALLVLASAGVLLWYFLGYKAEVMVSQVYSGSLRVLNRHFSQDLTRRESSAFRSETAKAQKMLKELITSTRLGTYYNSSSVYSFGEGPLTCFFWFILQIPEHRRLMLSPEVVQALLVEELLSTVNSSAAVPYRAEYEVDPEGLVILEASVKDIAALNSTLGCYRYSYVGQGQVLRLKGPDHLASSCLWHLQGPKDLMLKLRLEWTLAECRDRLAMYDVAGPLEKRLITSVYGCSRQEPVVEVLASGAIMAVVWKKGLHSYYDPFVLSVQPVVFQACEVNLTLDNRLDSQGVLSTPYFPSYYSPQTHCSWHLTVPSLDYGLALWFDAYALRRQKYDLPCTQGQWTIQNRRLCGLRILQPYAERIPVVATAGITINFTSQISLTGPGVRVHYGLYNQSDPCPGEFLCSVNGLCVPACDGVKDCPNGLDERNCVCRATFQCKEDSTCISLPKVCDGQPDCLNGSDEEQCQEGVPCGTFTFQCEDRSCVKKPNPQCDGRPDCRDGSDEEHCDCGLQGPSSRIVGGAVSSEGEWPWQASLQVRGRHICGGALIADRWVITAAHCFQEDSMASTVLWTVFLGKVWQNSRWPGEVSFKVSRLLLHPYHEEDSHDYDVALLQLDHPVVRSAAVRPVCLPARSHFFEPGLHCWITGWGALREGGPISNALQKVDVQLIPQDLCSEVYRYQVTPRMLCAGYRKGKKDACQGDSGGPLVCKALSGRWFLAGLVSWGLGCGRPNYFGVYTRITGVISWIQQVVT
Type: biochemical
In short: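 Fluorogenic readout (Ex 360/Em 480 nm) taken 60 min after adding 62 μM Boc-Gln-Ala-Arg-AMC, following 30-min enzyme–compound preincubation at 25 °C. Conditions: 3.5 nM in-house enzyme, pH 7.5 Tris/NaCl/gelatin buffer, 1% DMSO; percent inhibition versus concentration fitted by variable-slope sigmoidal regression.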

SMILES | pKi
NCc1ccc2cc(C(=O)O)n(Cc3cc(NS(=O)(=O)CCn4ccnn4)cc4ccccc34)c2n1 [Compound 228, 6-(aminomethyl)-1-({3-[2-(1H-1,2,3-triazol-1-yl)ethanesulfonamido]-naphthalen-1-yl}meth-yl)-1H-pyrrolo[2,3-b]-pyridine-2-carboxylic acid] | 6.30 to 7.00
NCc1ccc2cc(C(=O)O)n(Cc3cc(NS(=O)(=O)Cc4cccc(F)c4)cc4ccccc34)c2n1 [Compound 229, 6-(aminomethyl)-1-({3-[(3-fluorophenyl)meth-anesulfonamido]naph-thalen-1-yl}methyl)-1H-pyrrolo[2,3-b]pyridine-2-carboxylic acid] | 6.30 to 7.00
NCc1ccc2cc(C(=O)O)n(Cc3cc(NS(=O)(=O)CCc4ccccc4)cc4ccccc34)c2n1 [Compound 230, 6-(aminomethyl)-1-{[3-(2-phenylethanesulfon-amido)naphthalen-1-yl]-methyl}-1H-pyrrolo[2,3-b]pyridine-2-carboxylic acid] | 6.30 to 7.00
NCc1ccc2cc(C(=O)O)n(Cc3cc(NS(=O)(=O)Cc4cncnc4)cc4ccccc34)c2n1 [Compound 231, 6-(aminomethyl)-1-({3-[(pyrimidin-5-yl)methane-sulfonamido]naphthalen-1-yl}methyl)-1H-pyr-rolo[2,3-b]pyridine-2-carboxylic acid] | 6.30 to 7.00
NCc1ccc2cc(C(=O)O)n(Cc3cc(NS(=O)(=O)CCCN4CCCC4)cc4ccccc34)c2n1 [Compound 232, 6-(aminomethyl)-1-({3-[3-(pyrrolidin-1-yl)-propanesulfonamido]-naphthalen-1-yl}methyl)-1H-pyrrolo[2,3-b]pyr-idine-2-carboxylic acid] | 6.30 to 7.00
NCc1ccc2cc(C(=O)O)n(Cc3cc(NS(=O)(=O)Cc4ccno4)cc4ccccc34)c2n1 [Compound 233, 6-(aminomethyl)-1-({3-[(1,2-oxazol-5-yl)-methanesulfonamido]-naphthalen-1-yl}methyl)-1H-pyrrolo[2,3-b]pyr-idine-2-carboxylic acid] | 6.30 to 7.00
COCCN1CCN(CCS(=O)(=O)Nc2cc(Cn3c(C(=O)O)cc4ccc(CN)nc43)c3ccccc3c2)CC1 [Compound 234, 6-(aminomethyl)-1-[(3-{2-[4-(2-methoxyethyl)-piperazin-1-yl]ethane-sulfonamido}naphthalen-1-yl)methyl]-1H-pyr-rolo[2,3-b]pyridine-2-carboxylic acid] | 6.30 to 7.00
CN1CCC[C@H]1CCS(=O)(=O)Nc1cc(Cn2c(C(=O)O)cc3ccc(CN)nc32)c2ccccc2c1 [Compound 235, 6-(aminomethyl)-1-[(3-{2-[(2S)-1-methylpyr-rolidin-2-yl]ethanesul-fonamido}naphthalen-1-yl)methyl]-1H-pyrrolo-[2,3-b]pyridine-2-car-boxylic acid] | 6.30 to 7.00
NCc1ccc2cc(C(=O)O)n(Cc3cc(NS(=O)(=O)Cc4ccco4)cc4ccccc34)c2n1 [Compound 236, 6-(aminomethyl)-1-({3-[(furan-2-yl)methane-sulfonamido]naphthalen-1-yl}methyl)-1H-pyr-rolo[2,3-b]pyridine-2-carboxylic acid] | 6.30 to 7.00
CN1CCC(CS(=O)(=O)Nc2cc(Cn3c(C(=O)O)cc4ccc(CN)nc43)c3ccccc3c2)CC1 [Compound 237, 6-(aminomethyl)-1-({3-[(1-methylpiperidin-4-yl)methanesulfonamido]-naphthalen-1-yl}methyl)-1H-pyrrolo[2,3-b]pyr-idine-2-carboxylic acid] | 6.30 to 7.00
Cc1cccc(CS(=O)(=O)Nc2cc(Cn3c(C(=O)O)cc4ccc(CN)nc43)c3ccccc3c2)c1 [Compound 238, 6-(aminomethyl)-1-({3-[(3-methylphenyl)meth-anesulfonamido]naph-thalen-1-yl}methyl)-1H-pyrrolo[2,3-b]pyridine-2-carboxylic acid] | 6.30 to 7.00
NCc1ccc2cc(C(=O)O)n(Cc3cc(NS(=O)(=O)Cc4cscn4)cc4ccccc34)c2n1 [Compound 239, 6-(aminomethyl)-1-({3-[(1,3-thiazol-4-yl)meth-anesulfonamido]naph-thalen-1-yl}methyl)-1H-pyrrolo[2,3-b]pyridine-2-carboxylic acid] | 6.30 to 7.00
NCc1ccc2cc(C(=O)O)n(Cc3cc(NS(=O)(=O)C4CCOCC4)cc4ccccc34)c2n1 [Compound 240, 6-(aminomethyl)-1-{[3-(oxane-4-sulfonamido)-naphthalen-1-yl]methyl}-1H-pyrrolo[2,3-b]pyr-idine-2-carboxylic acid] | 6.30 to 7.00
CCOC(=O)c1cc2ccc(CN)nc2n1Cc1cc(NS(=O)(=O)CC2CCNCC2)cc2ccccc12 [Compound 241, ethyl 6-(aminomethyl)-1-({3-[(piperidin-4-yl)-methanesulfonamido]-naphthalen-1-yl}methyl)-1H-pyrrolo[2,3-b]pyr-idine-2-carboxylate] | 6.30 to 7.00
NCc1ccc2cc(C(=O)O)n(Cc3cc(NS(=O)(=O)Cc4cccnc4)cc4ccccc34)c2n1 [Compound 242, 6-(aminomethyl)-1-({3-[(pyridin-3-yl)methane-sulfonamido]naphthalen-1-yl}methyl)-1H-pyr-rolo[2,3-b]pyridine-2-carboxylic acid] | 6.30 to 7.00
Cc1conc1CS(=O)(=O)Nc1cc(Cn2c(C(=O)O)cc3ccc(CN)nc32)c2ccccc2c1 [Compound 243, 6-(aminomethyl)-1-({3-[(4-methyl-1,2-oxazol-3-yl)methanesulfonamido]-naphthalen-1-yl}methyl)-1H-pyrrolo[2,3-b]pyr-idine-2-carboxylic acid] | 6.30 to 7.00

More lines, now with the values ahead:

pKi | SMILES
6.30 to 7.00 | Cn1cc(CS(=O)(=O)Nc2cc(Cn3c(C(=O)O)cc4ccc(CN)nc43)c3ccccc3c2)cn1 [Compound 244, 6-(aminomethyl)-1-({3-[(1-methyl-1H-pyrazol-4-yl)methanesulfonamido]-naphthalen-1-yl}methyl)-1H-pyrrolo[2,3-b]pyr-idine-2-carboxylic acid]
6.30 to 7.00 | NCc1ccc2cc(C(=O)O)n(Cc3cc(NS(=O)(=O)Cc4ccncc4)cc4ccccc34)c2n1 [Compound 245, 6-(aminomethyl)-1-({3-[(pyridin-4-yl)methane-sulfonamido]naphthalen-1-yl}methyl)-1H-pyr-rolo[2,3-b]pyridine-2-carboxylic acid]
6.30 to 7.00 | NCc1ccc2cc(C(=O)O)n(Cc3cc(NS(=O)(=O)Cc4c(F)cccc4F)cc4ccccc34)c2n1 [Compound 246, 6-(aminomethyl)-1-({3-[(2,6-difluorophenyl)-methanesulfonamido]-naphthalen-1-yl}meth-yl)-1H-pyrrolo[2,3-b]-pyridine-2-carboxylic acid]
5.52 to 6.30 | COc1ccc(Cl)cc1CS(=O)(=O)Nc1cc(Cn2c(C(=O)O)cc3ccc(CN)nc32)c2ccccc2c1 [Compound 247, 6-(aminomethyl)-1-({3-[(5-chloro-2-methoxy-phenyl)methanesulfon-amido]naphthalen-1-yl}-methyl)-1H-pyrrolo[2,3-b]pyridine-2-carboxylic acid]
5.52 to 6.30 | CN1CCC(COC(=O)c2cc3ccc(CN)nc3n2Cc2cc(NS(=O)(=O)CC34CC(F)(C3)C4)cc3ccccc23)CC1 [Compound 248, (1-methylpiperidin-4-yl)-methyl 6-(aminomethyl)-1-{[3-({3-fluorobicyclo-[1.1.1]pentan-1-yl}-methanesulfonamido)-naphthalen-1-yl]methyl}-1H-pyrrolo[2,3-b]pyr-idine-2-carboxylate]
5.52 to 6.30 | CN1CCC(COC(=O)c2cc3ccc(CN)nc3n2Cc2cc(NS(=O)(=O)CC3CCNCC3)cc3ccccc23)CC1 [Compound 249, (1-methylpiperidin-4-yl)methyl 6-(amino-methyl)-1-({3-{(piperi-din-4-yl)methanesul-fonamido]naphthalen-1-yl}methyl)-1H-pyr-rolo[2,3-b]pyridine-2-carboxylate]
5.52 to 6.30 | Cc1cc(CS(=O)(=O)Nc2cc(Cn3c(C(=O)O)cc4ccc(CN)nc43)c3ccccc3c2)no1 [Compound 250, 6-(aminomethyl)-1-({3-[(5-methyl-1,2-oxazol-3-yl)methanesulfon-amido]naphthalen-1-yl}-methyl)-1H-pyrrolo[2,3-b]pyridine-2-carboxylic acid]
5.52 to 6.30 | NCc1ccc2cc(C(=O)O)n(Cc3cc(NS(=O)(=O)Cc4c(Cl)cccc4Cl)cc4ccccc34)c2n1 [Compound 251, 6-(aminomethyl)-1-({3-[(2,6-dichlorophenyl)-methanesulfonamido]-naphthalen-1-yl}methyl)-1H-pyrrolo[2,3-b]pyr-idine-2-carboxylic acid]
5.52 to 6.30 | NCc1ccc2cc(C(=O)O)n(Cc3cc(CS(=O)(=O)Cc4ccccc4)cc4ccccc34)c2n1 [Compound 252, 6-(aminomethyl)-1-{[3-(phenylmethanesulfon-ylmethyl)naphthalen-1-yl]methyl}-1H-pyrrolo-[2,3-b]pyridine-2-car-boxylic acid]
